Results as given in patent publication US11331299B2, “Medicinal use of serrulatane diterpenes” (The University of Sydney, priority 2016, dated 2022).
Like-named read-outs stand apart in the source and are kept apart here.

Test system: 280 human cancer cell lines
Assay: OncoPanel cell proliferation assay (10-day)
Format: cell-based
Details: Homo sapiens; for EC50: read-out: Cell Count EC50; for IC50: read-out: Cell Count IC50
[1] = SW872, SW872, Soft Tissue - Sarcoma
[2] = SW 954, SW954, Female GU - Vulva
[3] = SW982, SW982, Soft Tissue - Sarcoma
[4] = SW1353, SW1353, Soft Tissue - Osteosarcoma
[5] = TE 125.T, Soft Tissue - Sarcoma
[6] = TE 381.T, Soft Tissue - Sarcoma
[7] = U2OS, Soft Tissue - Osteosarcoma
[8] = U-118-MG, U-118 MG, CNS - Glioma
[9] = VA-ES-BJ, Soft Tissue - Sarcoma
[10] = WM 266-4, WM-266-4, Skin (Melanoma)
[11] = NCI-H295R, Endocrine - Adrenal gland

CC(C)=CCC[C@H](CO)[C@@H]1CC[C@@H](C)c2c1cc(C)c(O)c2O [Compound 1, 7,8,18-trihydroxyserrulat-14-ene]
EC50 [1]: 0.96 µM | GI50 (SW872, SW872, Soft Tissue - Sarcoma, read-out: Cell Count GI50): 0.96 µM | IC50 [1]: 0.96 µM | EC50 (SW900, SW900, Lung - SCLC): 3.29 µM | GI50 (SW900, SW900, Lung - SCLC, read-out: Cell Count GI50): 3.24 µM | IC50 (SW900, SW900, Lung - SCLC): 3.33 µM | EC50 (SW948, SW948, Colon): 2.21 µM | GI50 (SW948, SW948, Colon, read-out: Cell Count GI50): 2.2 µM | IC50 (SW948, SW948, Colon): 2.21 µM | EC50 [2]: 7.63 µM | GI50 (SW 954, SW954, Female GU - Vulva, read-out: Cell Count GI50): 7.6 µM | IC50 [2]: 7.63 µM | EC50 [3]: 1.07 µM | GI50 (SW982, SW982, Soft Tissue - Sarcoma, read-out: Cell Count GI50): 1.07 µM | IC50 [3]: 1.07 µM | EC50 (SW1088, SW1088, CNS - Glioma): 2.44 µM | GI50 (SW1088, SW1088, CNS - Glioma, read-out: Cell Count GI50): 2.43 µM | IC50 (SW1088, SW1088, CNS - Glioma): 2.44 µM | EC50 [4]: 1 µM | GI50 (SW1353, SW1353, Soft Tissue - Osteosarcoma, read-out: Cell Count GI50): 0.99 µM | IC50 [4]: 1 µM | EC50 (SW1417, SW1417, Colon): 3.15 µM | GI50 (SW1417, SW1417, Colon, read-out: Cell Count GI50): 3.07 µM | IC50 (SW1417, SW1417, Colon): 3.15 µM | EC50 (SW1463, SW1463, Colon): 3.73 µM | GI50 (SW1463, SW1463, Colon, read-out: Cell Count GI50): 3.71 µM | IC50 (SW1463, SW1463, Colon): 3.75 µM | EC50 (SW1783, SW1783, CNS - Glioma): 3.19 µM | GI50 (SW1783, SW1783, CNS - Glioma, read-out: Cell Count GI50): 3.09 µM | IC50 (SW1783, SW1783, CNS - Glioma): 3.19 µM | EC50 (SW-403, SW403, Colon): 8.09 µM | GI50 (SW-403, SW403, Colon, read-out: Cell Count GI50): 7.89 µM | IC50 (SW-403, SW403, Colon): 8.11 µM | EC50 (SW-620, SW620, Colon): 1.48 µM | GI50 (SW-620, SW620, Colon, read-out: Cell Count GI50): 1.48 µM | IC50 (SW-620, SW620, Colon): 1.48 µM | EC50 (SiHa, Female GU - Cervix): 5.22 µM | GI50 (SiHa, Female GU - Cervix, read-out: Cell Count GI50): 5.17 µM | IC50 (SiHa, Female GU - Cervix): 5.23 µM | EC50 (T24, Bladder): 1.44 µM | GI50 (T24, Bladder, read-out: Cell Count GI50): 1.44 µM | IC50 (T24, Bladder): 1.44 µM | GI50 (T47D, Breast, read-out: Cell Count GI50): 4.28 µM | GI50 (T98G, CNS - Glioma, read-out: Cell Count GI50): 2.05 µM | EC50 (TCC-SUP, TCCSUP, Bladder): 1.75 µM | GI50 (TCC-SUP, TCCSUP, Bladder, read-out: Cell Count GI50): 1.72 µM | IC50 (TCC-SUP, TCCSUP, Bladder): 1.75 µM | EC50 [5]: 6.47 µM | GI50 (TE 125.T, Soft Tissue - Sarcoma, read-out: Cell Count GI50): 1.48 µM | IC50 [5]: 9.21 µM | EC50 [6]: 1.62 µM | GI50 (TE 381.T, Soft Tissue - Sarcoma, read-out: Cell Count GI50): 1.59 µM | IC50 [6]: 1.62 µM | EC50 (TF-1, Leukemia): 2.11 µM | GI50 (TF-1, Leukemia, read-out: Cell Count GI50): 1.98 µM | IC50 (TF-1, Leukemia): 2.11 µM | EC50 (THP-1, Thp1, Leukemia): 1.38 µM | GI50 (THP-1, Thp1, Leukemia, read-out: Cell Count GI50): 1.34 µM | IC50 (THP-1, Thp1, Leukemia): 1.38 µM | EC50 (TUR, Lymphoma): 5.09 µM | GI50 (TUR, Lymphoma, read-out: Cell Count GI50): 5.08 µM | IC50 (TUR, Lymphoma): 5.09 µM | EC50 [7]: 1.66 µM | GI50 (U2OS, Soft Tissue - Osteosarcoma, read-out: Cell Count GI50): 1.65 µM | IC50 [7]: 1.66 µM | EC50 (U138-MG, U-138MG, CNS - Glioma): 6.29 µM | GI50 (U138-MG, U-138MG, CNS - Glioma, read-out: Cell Count GI50): 6.15 µM | IC50 (U138-MG, U-138MG, CNS - Glioma): 6.33 µM | EC50 (U266B1, Myeloma): 3.22 µM | GI50 (U266B1, Myeloma, read-out: Cell Count GI50): 3.08 µM | IC50 (U266B1, Myeloma): 3.22 µM | EC50 (U-87 MG, CNS - Glioma): 2.12 µM | GI50 (U-87 MG, CNS - Glioma, read-out: Cell Count GI50): 2.04 µM | IC50 (U-87 MG, CNS - Glioma): 2.12 µM | EC50 [8]: 4.56 µM | GI50 (U-118-MG, U-118 MG, CNS - Glioma, read-out: Cell Count GI50): 4.49 µM | IC50 [8]: 4.58 µM | EC50 (UMUC3, UM-UC-3, Bladder): 1.85 µM | GI50 (UMUC3, UM-UC-3, Bladder, read-out: Cell Count GI50): 1.84 µM | IC50 (UMUC3, UM-UC-3, Bladder): 1.85 µM | EC50 [9]: 3.67 µM | GI50 (VA-ES-BJ, Soft Tissue - Sarcoma, read-out: Cell Count GI50): 3.55 µM | IC50 [9]: 3.67 µM | EC50 [10]: 1.15 µM | GI50 (WM 266-4, WM-266-4, Skin (Melanoma), read-out: Cell Count GI50): 1.14 µM | IC50 [10]: 1.15 µM | EC50 (WiDr, Colon): 2.32 µM | GI50 (WiDr, Colon, read-out: Cell Count GI50): 2.31 µM | IC50 (WiDr, Colon): 2.32 µM | EC50 (Y79, Eye): 5.6 µM | GI50 (Y79, Eye, read-out: Cell Count GI50): 5.33 µM | IC50 (Y79, Eye): 5.6 µM | EC50 (YAPC, Pancreas): 1.91 µM | GI50 (YAPC, Pancreas, read-out: Cell Count GI50): 1.9 µM | IC50 (YAPC, Pancreas): 1.91 µM | EC50 [11]: 14.7 µM | IC50 [11]: 14.7 µM | EC50 (T47D, Breast): 4.63 µM | IC50 (T47D, Breast): 4.63 µM | EC50 (T98G, CNS - Glioma): 2.05 µM | IC50 (T98G, CNS - Glioma): 2.05 µM | GI50 (read-out: GI50): 0.4 to 1 µM
